Measured values reported in the NIST ThermoML archive (doi:10.1021/je2012633).

Experiment: xn = mol fraction of the nth substance listed
Settings: 101 kPa, Liquid, Vibrating tube method

CCOS(=O)(=O)[O-].CCn1cc[n+](C)c1 [1-ethyl-3-methylimidazolium ethyl sulfate] + CCO
mass density [kg/m3]
Settings	288.15 K	298.15 K	308.15 K	318.15 K
x1 = 0.0494	864.9	856.6	848.1	839.7
x1 = 0.1233	943.6	935.6	927.6	919.5
x1 = 0.2469	1035.3	1027.6	1019.9	1012.3
x1 = 0.3485	1088.4	1080.9	1073.4	1066
x1 = 0.4727	1136.8	1129.5	1122.2	1115
x1 = 0.5667	1164.9	1157.7	1150.6	1143.5
x1 = 0.6483	1185.3	1178.2	1171.2	1164.2
x1 = 0.7421	1205.3	1198.3	1191.3	1184.4
x1 = 0.827	1220.5	1213.8	1206.8	1200
x1 = 0.9211	1234.8	1227.9	1221.1	1214.3
x1 = 1	1245.3	1238.3	1231.6	1224.9

CCOS(=O)(=O)[O-].CCn1cc[n+](C)c1 [1-ethyl-3-methylimidazolium ethyl sulfate] + O
mass density [kg/m3]
Settings	288.15 K	298.15 K	308.15 K	318.15 K
x1 = 0.0319	1064.5	1059.9	1054.4	1048.4
x1 = 0.07	1114.1	1108	1101.8	1095.1
x1 = 0.1022	1141.9	1135.3	1128.5	1121.5
x1 = 0.1961	1186.1	1178.9	1171.8	1164.6
x1 = 0.2988	1208.5	1201.4	1194.3	1187.2
x1 = 0.395	1220.4	1213.4	1206.3	1199.3
x1 = 0.4939	1228.4	1221.4	1214.4	1207.4
x1 = 0.5829	1233.3	1226.4	1219.4	1212.5
x1 = 0.6798	1237.1	1230.2	1223.4	1216.6
x1 = 0.7975	1240.8	1233.9	1227.1	1220.3
x1 = 0.8726	1242.6	1235.8	1229	1222.3
x1 = 1	1245.3	1238.3	1231.6	1224.9

CCCCCCCCOS(=O)(=O)[O-].CCn1cc[n+](C)c1 [1-ethyl-3-methylimidazolium octyl sulfate] + CCO
mass density [kg/m3]
Settings	x1 = 0.098	x1 = 0.1901	x1 = 0.2985	x1 = 0.3955	x1 = 0.4964	x1 = 0.5975	x1 = 0.6844	x1 = 0.792	x1 = 0.9047	x1 = 1
288.15 K	906.4	964.1	1006.3	1031.6	1050.9	1065.6	1075.6	1085.7	1094.4	1100.7
298.15 K	898.5	956.5	998.9	1024.4	1043.9	1058.7	1068.8	1078.9	1087.5	1093.8
308.15 K	890.7	949	991.8	1017.4	1037	1051.9	1062.1	1072.3	1081	1087
318.15 K	882.8	941.4	984.4	1010.3	1030.1	1045.2	1055.4	1065.8	1074.4	1080.5

CCCCCCCCOS(=O)(=O)[O-].CCn1cc[n+](C)c1 [1-ethyl-3-methylimidazolium octyl sulfate] + O
mass density [kg/m3]
Settings	x1 = 0.0053	x1 = 0.1002	x1 = 0.3923	x1 = 0.5963	x1 = 0.7373	x1 = 0.7747	x1 = 0.8545	x1 = 0.9371	x1 = 1
298.15 K	1005.3	1060.6	1086.3	1090.5	1092.1	1092.4	1093	1093.5	1093.8
308.15 K	1001.8	1054	1079.6	1083.8	1085.5	1085.7	1086.4	1086.9	1087
318.15 K	997.3	1047.4	1072.9	1077.2	1079.1	1079.2	1079.9	1080.4	1080.5

CCCCCCOS(=O)(=O)[O-].CC[n+]1ccn(C)c1 [3-ethyl-1-methyl-1H-imidazolium hexyl sulfate] + CCO
mass density [kg/m3]
Settings	x1 = 0.0977	x1 = 0.2202	x1 = 0.3246	x1 = 0.4377	x1 = 0.4947	x1 = 0.6214	x1 = 0.7252	x1 = 0.7455	x1 = 0.9063	x1 = 1
288.15 K	911.2	990	1031.7	1063.2	1075.5	1097.3	1110.9	1113.2	1128.5	1136.6
298.15 K	903.4	982.4	1024.3	1056	1068.4	1090.4	1104.1	1106.4	1121.8	1129.6
308.15 K	895.3	974.9	1017.1	1048.9	1061.4	1083.5	1097.4	1099.7	1115.2	1123.1
318.15 K	887.4	967.4	1009.8	1042	1054.4	1076.8	1090.7	1093	1108.8	1116.6

CCCCCCOS(=O)(=O)[O-].CC[n+]1ccn(C)c1 [3-ethyl-1-methyl-1H-imidazolium hexyl sulfate] + O
mass density [kg/m3]
Settings	x1 = 0.0501	x1 = 0.0965	x1 = 0.2075	x1 = 0.3982	x1 = 0.582	x1 = 0.7243	x1 = 0.7976	x1 = 0.9346	x1 = 1
288.15 K	1061.4	1086.5	1111.4	1125.8	1131.2	1133.5	1134.5	1135.8	1136.6
298.15 K	1056	1080.2	1104.8	1119	1124.5	1126.8	1127.7	1129	1129.6
308.15 K	1050.2	1073.7	1097.8	1112.2	1117.8	1120.3	1121.2	1122.3	1123.1
318.15 K	1044.1	1066.9	1090.8	1105.4	1111.2	1113.8	1114.7	1115.8	1116.6
